Assay results taken from US20090286740A1, “PEPTIDES AND DERIVATIVES THEREOF, THE MANUFACTURING THEREOF AS WELL AS THEIR USE FOR PREPARING A THERAPEUTICALLY AND/OR PREVENTIVELY ACTIVE PHARMACEUTICAL COMPOSITION” (FIBREX MEDICAL RESEARCH & DEVELOPMENT GMBH, priority 2008, published 2009).
Where no end group is shown, it is not given here.

Legend:
RhoA = assay: thrombin induced RhoA activation in HUVEC culture (active RhoA pull-down, blot); assay type: cell-based, human; conditions: 5 U/ml thrombin alone, 5 min
Procedure: The biological effect of the compounds was established in a model thrombin induced RhoA activation in human umbilical vein endothelial cell (HUVEC) culture.
HUVEC are grown to confluence under standard conditions. Before induction of Rho activity HUVEC were starved for 4 h by using IMDM (Gibco) without growth factor and serum supplements. After the starvation period 5 U/ml Thrombin (Calbiochem) or 5 U thrombin plus 50 μg/ml of test compound are added to the starvation medium for 1, 5 and 10 min. Active RhoA was isolated using Rho Assay Reagent from Upstate according to manufactures instructions. Isolates were separated on a 15% polyacrylamid gel and blotted on Nitrocellulose-Membrane (Bio-Rad). RhoA was dedected by using Anti-Rho (-A, -B, -C), clone55 from Upstate (1:500).

[1] = biological target: T1, vascular endothelial (VE) cadherin (human, UniProt P33151 48-784); assay: cell-based or functional assay
T1 sequence (looked up): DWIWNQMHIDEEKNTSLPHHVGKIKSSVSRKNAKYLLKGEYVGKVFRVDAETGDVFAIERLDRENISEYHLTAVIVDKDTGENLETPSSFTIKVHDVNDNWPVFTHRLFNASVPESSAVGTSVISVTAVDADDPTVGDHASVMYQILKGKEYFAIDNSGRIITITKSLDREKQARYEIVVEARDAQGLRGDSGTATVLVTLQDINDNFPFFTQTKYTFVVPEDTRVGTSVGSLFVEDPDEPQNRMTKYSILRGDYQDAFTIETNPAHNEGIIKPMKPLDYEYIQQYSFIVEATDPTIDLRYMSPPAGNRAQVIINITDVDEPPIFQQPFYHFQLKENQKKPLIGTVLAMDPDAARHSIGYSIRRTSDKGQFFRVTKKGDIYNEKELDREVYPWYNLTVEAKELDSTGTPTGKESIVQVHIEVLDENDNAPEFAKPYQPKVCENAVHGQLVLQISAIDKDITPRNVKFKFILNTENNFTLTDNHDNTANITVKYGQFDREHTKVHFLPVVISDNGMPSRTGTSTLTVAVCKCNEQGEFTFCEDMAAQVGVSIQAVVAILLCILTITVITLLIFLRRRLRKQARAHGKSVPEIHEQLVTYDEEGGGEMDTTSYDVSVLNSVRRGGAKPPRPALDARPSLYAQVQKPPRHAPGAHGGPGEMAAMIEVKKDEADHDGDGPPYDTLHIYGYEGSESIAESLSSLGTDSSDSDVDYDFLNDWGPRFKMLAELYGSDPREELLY

thrombin
Relative RhoA stimulation compared to unstimulated control (RhoA): 2.6

GHRPLAPSLRPAPPPISGGGYR-OH [Gly-His-Arg-Pro-Leu-Ala-Pro-Ser-Leu-Arg-Pro-Ala-Pro-Pro-Pro-Ile-Ser-Gly-Gly-Gly-Tyr-Arg-OH]
Relative RhoA stimulation compared to unstimulated control (thrombin-induced RhoA activation in HUVEC, Rho pull-down and blot; thrombin alone 5 min = 2.6) [1]: 1.2 fold relative to unstimulated control
